In patent US10265329B2, “Altering steroid metabolism for treatment of steroid-dependent disease” (THE CLEVELAND CLINIC FOUNDATION, priority 2015, dated 2019):

Tests used:
[1] = Serum deoxycorticosterone at end of xenograft study; type: in vivo; conditions: serum from treated mice at the end of the xenograft study
Procedure: Mouse serum collection, derivatization and extraction. […] Louis, Mo.). Steroids were extracted with methyl tert-butyl ether (Sigma Aldrich, St. Louis, Mo.), evaporated under a stream of nitrogen gas and reconstituted in methanol:water (50:50) prior to mass spectrometry analysis. Mouse serum analysis. Samples were analyzed on a Thermo TSQ Quantiva-Prelude SPLC system (Thermo Scientific, Waltham, Mass.) with Aria MX 2.1 and Tracefinder 3.2.368.22 software for instrument controls and quantitation. […] Steroids were ionized by electrospray ionization and in positive ion mode. […] Concentrations were determined using stable isotope dilution analysis.

VCaP xenografts = assay: VCaP xenograft progression in orchiectomized mice with DHEA pellet; type: in vivo; conditions: 0.5 mmol/kg/d i.p.; compared to the Abi acetate group, P=0.011
Procedure: Male NSG mice, 6 to 8 weeks of age were obtained from the Cleveland Clinic Biological Resources Unit facility. All mouse studies were conducted under a protocol approved by the Cleveland Clinic Institutional Animal Care and Use Committee. Sample size was determined based on our prior studies of steroidogenesis inhibition in xenograft models of CRPC. Chang et al., Proc Natl Acad Sci USA., 108:13728-13733 (2011). Criteria for progression were determined based on similar criteria that are utilized for clinical progression. Mice were surgically orchiectomized and implanted with a 5 mg 90-day sustained-release DHEA pellet (Innovative Research of America) to mimic CRPC in the context of human adrenal physiology. Two days later, 10^7 VCaP or C4-2 cells were injected subcutaneously with matrigel. Once tumors reached 300 mm^3 (length×width×height×0.52), mice were arbitrarily (but not strictly randomized) assigned to vehicle (n=9 or 10 mice for VCaP and C4-2 respectively), Abi acetate (n=10 mice for both cell lines), D4A (n=10 mice for both cell lines) or enzalutamide (n=11 for C4-2) treatment groups. […] Tumor volume was measured daily, and time to increase in tumor volume by 20% was determined. […] The significance of the difference between treatment groups was assessed by Kaplan-Meier survival analysis using a log-rank test in SigmaStat 3.5.

C[C@]12CCC(=O)C=C1CC[C@@H]1[C@@H]2CC[C@]2(C)C(c3cccnc3)=CC[C@@H]12 [Compound D4A, 17-(3-Pyridyl)androsta-4,16-dien-3-one]
serum deoxycorticosterone [1]: no detectable increase
time to tumor progression (>20% increase in tumor volume) (VCaP xenografts): significantly delayed
